{"source": "patent US20240391862A1", "about": "“(1,4,5-TRISUBSTITUTED-1H-PYRAZOL-3-YL)OXY-2-ALKOXY ALKYL ACIDS AND THEIR DERIVATIVES, THEIR SALTS AND THEIR USE AS HERBICIDAL AGENTS” (Bayer AKtiengesellschaft, priority 2021, published 2024)", "key": {"[1]": {"test_system": "KCHSC", "test": "Post-emergence herbicidal effect, greenhouse pot test", "assay_type": "in vivo", "conditions": "320 g/ha", "in_short": "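Visual rating of activity against untreated plants (100% = plants died, 0% = no effect), done about 3 weeks after treatment. Compounds applied at 20–320 g/ha as aqueous spray (600 l/ha, 0.5% additive) from WP or EC formulations onto one-leaf-stage plants grown in sandy loam under greenhouse conditions.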"}, "[2]": {"test_system": "DIGSA", "test": "Post-emergence herbicidal effect, greenhouse pot test", "assay_type": "in vivo, Digitaria sanguinalis", "conditions": "visual rating about 3 weeks after treatment", "in_short": "(§1)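 Visual % activity scored roughly 3 weeks post-spray against untreated plants, where 100% means death and 0% equals control. Plants were treated at the one-leaf stage, 2 to 3 weeks after sowing in sandy loam, at 20 to 320 g/ha.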"}, "[3]": {"test_system": "AVEFA", "test": "Post-emergence herbicidal effect, greenhouse pot test", "assay_type": "in vivo, Avena fatua", "conditions": "320 g/ha, visual rating about 3 weeks after treatment", "in_short": "as §1"}, "[4]": {"test_system": "ALOMY", "test": "Post-emergence herbicidal effect, greenhouse pot test", "assay_type": "in vivo, Alopecurus myosuroides", "conditions": "320 g/ha, visual rating about 3 weeks after treatment", "in_short": "as §1"}, "[5]": {"test_system": "ECHCG", "test": "Post-emergence herbicidal effect, greenhouse pot test", "assay_type": "in vivo, Echinochloa crus-galli", "in_short": "as §1"}, "[6]": {"test_system": "MATIN", "test": "Post-emergence herbicidal effect, greenhouse pot test", "assay_type": "in vivo, Tripleurospermum inodorum", "conditions": "320 g/ha", "in_short": "as §1"}, "[7]": {"test_system": "ZEAMX", "test": "Post-emergence herbicidal effect and crop plant compatibility, greenhouse pot test", "assay_type": "in vivo, Zea mays", "conditions": "one-leaf stage, rated visually after about 3 weeks vs untreated controls; for plant injury at 20 g/ha: Zea mays, 504 h, read-out: Post-emergence effect at 20 g/ha against ZEAMX in %", "in_short": "as §1"}, "[8]": {"test_system": "VIOTR", "test": "Post-emergence herbicidal effect, greenhouse pot test", "assay_type": "in vivo, Viola tricolor", "conditions": "Viola tricolor, 504 h, read-out: Post-emergence effect against VIOTR in %", "in_short": "as §1"}, "[9]": {"test_system": "ABUTH", "test": "Post-emergence herbicidal effect, greenhouse pot test", "assay_type": "in vivo, Abutilon theophrasti", "conditions": "visual rating about 3 weeks after treatment", "in_short": "as §1"}, "[10]": {"test_system": "VERPE", "test": "Post-emergence herbicidal effect, greenhouse pot test", "assay_type": "in vivo, Veronica persica", "in_short": "as §1"}, "[11]": {"test_system": "TRZAS", "test": "Post-emergence herbicidal effect and crop plant compatibility, greenhouse pot test", "assay_type": "in vivo, Triticum aestivum", "conditions": "20 g/ha, one-leaf stage, rated visually after about 3 weeks vs untreated controls; for percent crop injury (phytotoxicity) to wheat, post-emergence at 20 g/ha: Triticum aestivum, 504 h, read-out: Post-emergence effect at 20 g/ha against TRZAS in %", "in_short": "as §1"}, "[12]": {"test_system": "SETVI", "test": "Post-emergence herbicidal effect, greenhouse pot test", "assay_type": "in vivo, Setaria viridis", "in_short": "as §1"}, "[13]": {"test_system": "PHBPU", "test": "Post-emergence herbicidal effect, greenhouse pot test", "assay_type": "in vivo, Ipomoea purpurea", "in_short": "as §1"}, "[14]": {"test_system": "AMARE", "test": "Post-emergence herbicidal effect, greenhouse pot test", "assay_type": "in vivo, Amaranthus retroflexus", "conditions": "320 g/ha, visual rating about 3 weeks after treatment", "in_short": "as §1"}, "[15]": {"test_system": "POLCO", "test": "Post-emergence herbicidal effect, greenhouse pot test", "assay_type": "in vivo, Fallopia convolvulus", "conditions": "320 g/ha", "in_short": "as §1"}}}
{"smiles": "CCOC(Oc1nn(-c2ccccc2F)c(-c2ccc(F)nc2)c1Br)C(=O)OCCC(=O)OC", "note": "(single isomer, unassigned) [Example I-59, Methyl 3-{[(2RS)-2-{[4-bromo-1-(2-fluorophenyl)-5-(6-fluoropyridin-3-yl)-1H-pyrazol-3-yl]oxy}-2-ethoxyethanoyl]oxy}propanoate]", "values": [{"measurement": "pest or weed control at 320 g/ha", "setting": "[1]; 504 h, read-out: Post-emergence effect against KCHSC in %", "result": 80, "unit": "%"}, {"measurement": "pest or weed control at 80 g/ha", "setting": "[2]; Digitaria sanguinalis, 504 h, 80 g/ha, read-out: Post-emergence effect against DIGSA", "result": 80, "unit": "%"}, {"measurement": "pest or weed control at 320 g/ha", "setting": "[2]; Digitaria sanguinalis, 504 h, 320 g/ha, read-out: Post-emergence effect against DIGSA", "result": 90, "unit": "%"}, {"measurement": "pest or weed control at 320 g/ha", "setting": "[3]; Avena fatua, 504 h, read-out: Post-emergence effect against AVEFA", "result": 80, "unit": "%"}, {"measurement": "pest or weed control at 320 g/ha", "setting": "[4]; Alopecurus myosuroides, 504 h, read-out: Post-emergence effect against ALOMY", "result": 90, "unit": "%"}, {"measurement": "pest or weed control at 80 g/ha", "setting": "[5]; Echinochloa crus-galli, 504 h, 80 g/ha, read-out: Post-emergence effect against ECHCG in %", "result": 90, "unit": "%"}, {"measurement": "pest or weed control at 320 g/ha", "setting": "[5]; Echinochloa crus-galli, 504 h, 320 g/ha, read-out: Post-emergence effect against ECHCG in %", "result": 90, "unit": "%"}, {"measurement": "pest or weed control at 320 g/ha", "setting": "[6]; Tripleurospermum inodorum, 504 h, read-out: Post-emergence effect against MATIN in %", "result": 80, "unit": "%"}, {"measurement": "plant injury at 20 g/ha", "setting": "[7]; 20 g/ha", "result": 20, "unit": "%"}, {"measurement": "pest or weed control at 80 g/ha", "setting": "[8]; 80 g/ha", "result": 90, "unit": "%"}, {"measurement": "pest or weed control at 320 g/ha", "setting": "[8]; 320 g/ha", "result": 90, "unit": "%"}, {"measurement": "pest or weed control at 80 g/ha", "setting": "[9]; Abutilon theophrasti, 504 h, 80 g/ha, read-out: Post-emergence effect against ABUTH", "result": 90, "unit": "%"}, {"measurement": "pest or weed control at 320 g/ha", "setting": "[9]; Abutilon theophrasti, 504 h, 320 g/ha, read-out: Post-emergence effect against ABUTH", "result": 90, "unit": "%"}, {"measurement": "pest or weed control at 80 g/ha", "setting": "[10]; Veronica persica, 504 h, 80 g/ha, read-out: Post-emergence effect against VERPE in %", "result": 80, "unit": "%"}, {"measurement": "pest or weed control at 320 g/ha", "setting": "[10]; Veronica persica, 504 h, 320 g/ha, read-out: Post-emergence effect against VERPE in %", "result": 80, "unit": "%"}, {"measurement": "percent crop injury (phytotoxicity) to wheat, post-emergence at 20 g/ha", "setting": "[11]", "result": 0, "unit": "%"}, {"measurement": "pest or weed control at 80 g/ha", "setting": "[12]; Setaria viridis, 504 h, 80 g/ha, read-out: Post-emergence effect against SETVI in %", "result": 80, "unit": "%"}, {"measurement": "pest or weed control at 320 g/ha", "setting": "[12]; Setaria viridis, 504 h, 320 g/ha, read-out: Post-emergence effect against SETVI in %", "result": 90, "unit": "%"}, {"measurement": "pest or weed control at 80 g/ha", "setting": "[13]; Ipomoea purpurea, 504 h, 80 g/ha, read-out: Post-emergence effect against PHBPU in %", "result": 90, "unit": "%"}, {"measurement": "pest or weed control at 320 g/ha", "setting": "[13]; Ipomoea purpurea, 504 h, 320 g/ha, read-out: Post-emergence effect against PHBPU in %", "result": 90, "unit": "%"}]}
{"smiles": "CCOC(Oc1nn(-c2ccccc2F)c(-c2ccc(F)nc2)c1Br)C(=O)OCCC(=O)OC", "note": "(single isomer, unassigned) [Example I-64, Methyl 3-{[(2R*)-2-{[4-bromo-1-(2-fluorophenyl)-5-(6-fluoropyridin-3-yl)-1H-pyrazol-3-yl]oxy}-2-ethoxyethanoyl]oxy}propanoate]", "values": [{"measurement": "Post-emergence effect against KCHSC in %", "setting": "[1]", "result": 90, "unit": "%"}, {"measurement": "Post-emergence effect against DIGSA", "setting": "[2]; 320 g/ha", "result": 80, "unit": "%"}, {"measurement": "Post-emergence effect against AVEFA", "setting": "[3]", "result": 90, "unit": "%"}, {"measurement": "Post-emergence effect against ALOMY", "setting": "[4]", "result": 90, "unit": "%"}, {"measurement": "Post-emergence effect against ECHCG in %", "setting": "[5]; 80 g/ha", "result": 80, "unit": "%"}, {"measurement": "Post-emergence effect against ECHCG in %", "setting": "[5]; 320 g/ha", "result": 90, "unit": "%"}, {"measurement": "Post-emergence effect against MATIN in %", "setting": "[6]", "result": 80, "unit": "%"}, {"measurement": "plant injury at 20 g/ha", "setting": "[7]; 20 g/ha", "result": 20, "unit": "%"}, {"measurement": "Post-emergence effect against ABUTH", "setting": "[9]; 320 g/ha", "result": 80, "unit": "%"}, {"measurement": "Post-emergence effect against VERPE in %", "setting": "[10]; 80 g/ha", "result": 80, "unit": "%"}, {"measurement": "Post-emergence effect against VERPE in %", "setting": "[10]; 320 g/ha", "result": 80, "unit": "%"}, {"measurement": "percent crop injury (phytotoxicity) to wheat, post-emergence at 20 g/ha", "setting": "[11]", "result": 10, "unit": "%"}, {"measurement": "Post-emergence effect against SETVI in %", "setting": "[12]; 320 g/ha", "result": 90, "unit": "%"}, {"measurement": "Post-emergence effect against PHBPU in %", "setting": "[13]; 80 g/ha", "result": 80, "unit": "%"}, {"measurement": "Post-emergence effect against PHBPU in %", "setting": "[13]; 320 g/ha", "result": 90, "unit": "%"}]}
{"smiles": "COC(=O)CCOC(=O)C(OC)Oc1nn(-c2ncccc2F)c(-c2ccc(F)nc2)c1C1CC1", "note": "(single isomer, unassigned) [Example I-81]", "values": [{"measurement": "Post-emergence effect against KCHSC in %", "setting": "[1]", "result": 90, "unit": "%"}, {"measurement": "Post-emergence effect against DIGSA", "setting": "[2]; 320 g/ha", "result": 80, "unit": "%"}, {"measurement": "Post-emergence effect against AMARE", "setting": "[14]", "result": 80, "unit": "%"}, {"measurement": "Post-emergence effect against AVEFA", "setting": "[3]", "result": 90, "unit": "%"}, {"measurement": "Post-emergence effect against ALOMY", "setting": "[4]", "result": 90, "unit": "%"}, {"measurement": "Post-emergence effect against POLCO in %", "setting": "[15]", "result": 90, "unit": "%"}, {"measurement": "Post-emergence effect against ECHCG in %", "setting": "[5]; 320 g/ha", "result": 90, "unit": "%"}, {"measurement": "Post-emergence effect at 20 g/ha against ZEAMX in %", "setting": "[7]; 20 g/ha", "result": 0, "unit": "%"}, {"measurement": "Post-emergence effect at 80 g/ha against ZEAMX in %", "setting": "[7]; 80 g/ha", "result": 0, "unit": "%"}, {"measurement": "Post-emergence effect against ABUTH", "setting": "[9]; 320 g/ha", "result": 90, "unit": "%"}, {"measurement": "Post-emergence effect at 20 g/ha against TRZAS in %", "setting": "[11]", "result": 0, "unit": "%"}, {"measurement": "Post-emergence effect against SETVI in %", "setting": "[12]; 320 g/ha", "result": 90, "unit": "%"}, {"measurement": "Post-emergence effect against PHBPU in %", "setting": "[13]; 320 g/ha", "result": 80, "unit": "%"}]}
